Key:
Cediranib/AZD2171 = compound: COc1cc2c(Oc3ccc4[nH]c(C)cc4c3F)ncnc2cc1OCCCN1CCCC1 [Cediranib/AZD2171]
BVD523 = compound: CC(C)Nc1cc(-c2c[nH]c(C(=O)N[C@H](CO)c3cccc(Cl)c3)c2)c(Cl)cn1 [BVD523]
[1] = compound: CCCCOc1c(C(=O)c2c(F)cc(C)cc2F)c[nH]c2nncc1-2
Rucaparib = compound: CNCc1ccc(-c2[nH]c3cc(F)cc4c3c2CCNC4=O)cc1 [Rucaparib]
THZ1 [2] = compound: T1, CN(C)C/C=C/C(=O)Nc1ccc(C(=O)Nc2cccc(Nc3ncc(Cl)c(-c4c[nH]c5ccccc45)n3)c2)cc1 [THZ1]
THZ531 [3] = compound: T2, CN(C)C/C=C/C(=O)Nc1ccc(C(=O)N2CCC[C@@H](Nc3ncc(Cl)c(-c4c[nH]c5ccccc45)n3)C2)cc1 [THZ531]
Alpelisib/BYL719 = compound: Cc1nc(NC(=O)N2CCC[C@H]2C(N)=O)sc1-c1ccnc(C(C)(C)C(F)(F)F)c1 [Alpelisib/BYL719]
Saracatinib/AZD0530 = compound: CN1CCN(CCOc2cc(OC3CCOCC3)c3c(Nc4c(Cl)ccc5c4OCO5)ncnc3c2)CC1 [Saracatinib/AZD0530]
[4] = compound: CC(=O)Nc1cccc(-n2c(=O)n(C3CC3)c(=O)c3c(Nc4ccc(I)cc4F)n(C)c(=O)c(C)c32)c1
AZD1775 = compound: C=CCn1c(=O)c2cnc(Nc3ccc(N4CCN(C)CC4)cc3)nc2n1-c1cccc(C(C)(C)O)n1 [AZD1775]
[5] = compound: CO[C@@H](C)Cn1c(=O)n(C)c2cnc3ccc(-c4cncc(C(C)(C)O)c4)cc3c21
[6] = compound: CC(=O)c1c(C)c2cnc(Nc3ccc(N4CCNCC4)cn3)nc2n(C2CCCC2)c1=O; assay: increase in dead-cell fraction, 72 h; higher = more death;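 further: breast cancer cell lines in 384-well plates, stained with Hoechst plus LIVE/DEAD far red dye and imaged, cells above an LDR intensity threshold counted dead, Hoechst-negative corpses included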
Neratinib/HKI272 = compound: CCOc1cc2ncc(C#N)c(Nc3ccc(OCc4ccccn4)c(Cl)c3)c2cc1NC(=O)/C=C/CN(C)C [Neratinib/HKI272]; assay: as above
THZ1 [7] = compound: T1, THZ1; assay: as above
THZ531 [8] = compound: T2, THZ531; assay: as above
LEE011/Ribociclib = compound: CN(C)C(=O)c1cc2cnc(Nc3ccc(N4CCNCC4)cn3)nc2n1C1CCCC1 [LEE011/Ribociclib]; assay: as above
[9] = compound: CCc1cnn2c(NCc3ccc[n+]([O-])c3)cc(N3CCCC[C@H]3CCO)nc12; assay: as above
BSJ-03-123 = compound: CC(=O)c1c(C)c2cnc(Nc3ccc(N4CCN(CCOCCOCCOCCNC(=O)COc5cccc6c5C(=O)N(C5CCC(=O)NC5=O)C6=O)CC4)cn3)nc2n(C2CCCC2)c1=O [BSJ-03-123]; assay: as above
YKL-5-124 = compound: C=CC(=O)Nc1ccc(C(=O)Nc2[nH]nc3c2CN(C(=O)N[C@H](CN(C)C)c2ccccc2)C3(C)C)cc1 [YKL-5-124]; assay: as above
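Wherever GR50, 72 h is given: breast cancer and non-malignant breast epithelial cell lines, Deep Dye Drop or Dye Drop imaging, nine half-log doses, GR normalized to time-zero plates and DMSO-only controls.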

**Q.** What does the source list for SUM185PE?
**A.** GR50, 72 h (Cediranib/AZD2171): 0.0358 µM; GR50, 72 h (BVD523): > 10 µM; GR50, 72 h [1]: > 10 µM; GR50, 72 h (Rucaparib): > 10 µM; GR50, 72 h (THZ1 [2]): 0.0143 µM; GR50, 72 h (THZ531 [3]): 0.136 µM; GR50, 72 h (Alpelisib/BYL719): 0.318 µM; GR50, 72 h (Saracatinib/AZD0530): 1.65 µM; GR50, 72 h [4]: > 1 µM; GR50, 72 h (AZD1775): 4.52 µM; GR50, 72 h [5]: 0.00357 µM; increase in dead-cell fraction ([6]; 0.0003162 µM): 0.0082; increase in dead-cell fraction ([6]; 0.001 µM): 0.0038; increase in dead-cell fraction ([6]; 0.003162 µM): 0.0174; increase in dead-cell fraction ([6]; 0.01 µM): -0.0044; increase in dead-cell fraction ([6]; 0.03162 µM): -0.0035; increase in dead-cell fraction ([6]; 0.1 µM): 0.0063; increase in dead-cell fraction ([6]; 0.3162 µM): 0.02; increase in dead-cell fraction ([6]; 1 µM): 0.0086; increase in dead-cell fraction ([6]; 3.162 µM): 0.0015; increase in dead-cell fraction (Neratinib/HKI272; 0.0003162 µM): 0.0036; increase in dead-cell fraction (Neratinib/HKI272; 0.001 µM): -0.0035; increase in dead-cell fraction (Neratinib/HKI272; 0.003162 µM): 0.0085; increase in dead-cell fraction (Neratinib/HKI272; 0.01 µM): 0.0152; increase in dead-cell fraction (Neratinib/HKI272; 0.03162 µM): 0.0297; increase in dead-cell fraction (Neratinib/HKI272; 0.1 µM): 0.0255; increase in dead-cell fraction (Neratinib/HKI272; 0.3162 µM): 0.0574; increase in dead-cell fraction (Neratinib/HKI272; 1 µM): 0.068; increase in dead-cell fraction (Neratinib/HKI272; 3.162 µM): 0.0933; increase in dead-cell fraction (THZ1 [7]; 0.0001 µM): -0.0025; increase in dead-cell fraction (THZ1 [7]; 0.0003162 µM): 0.0107; increase in dead-cell fraction (THZ1 [7]; 0.001 µM): -0.0054; increase in dead-cell fraction (THZ1 [7]; 0.003162 µM): 0.0295; increase in dead-cell fraction (THZ1 [7]; 0.01 µM): 0.0559; increase in dead-cell fraction (THZ1 [7]; 0.03162 µM): 0.216; increase in dead-cell fraction (THZ1 [7]; 0.1 µM): 0.224; increase in dead-cell fraction (THZ1 [7]; 0.3162 µM): 0.154; increase in dead-cell fraction (THZ1 [7]; 1 µM): 0.183; increase in dead-cell fraction (THZ531 [8]; 0.0001 µM): 0.0141; increase in dead-cell fraction (THZ531 [8]; 0.0003162 µM): 0.0051; increase in dead-cell fraction (THZ531 [8]; 0.001 µM): -0.0125; increase in dead-cell fraction (THZ531 [8]; 0.003162 µM): -0.0076; increase in dead-cell fraction (THZ531 [8]; 0.01 µM): -0.0143; increase in dead-cell fraction (THZ531 [8]; 0.03162 µM): -0.0254; increase in dead-cell fraction (THZ531 [8]; 0.1 µM): 0.0083; increase in dead-cell fraction (THZ531 [8]; 0.3162 µM): 0.278; increase in dead-cell fraction (THZ531 [8]; 1 µM): 0.139; increase in dead-cell fraction (LEE011/Ribociclib; 0.001 µM): -0.0065; increase in dead-cell fraction (LEE011/Ribociclib; 0.003162 µM): -0.0157; increase in dead-cell fraction (LEE011/Ribociclib; 0.01 µM): -0.0081; increase in dead-cell fraction (LEE011/Ribociclib; 0.03162 µM): -0.0009; increase in dead-cell fraction (LEE011/Ribociclib; 0.1 µM): -0.0246; increase in dead-cell fraction (LEE011/Ribociclib; 0.3162 µM): -0.0198; increase in dead-cell fraction (LEE011/Ribociclib; 1 µM): -0.0191; increase in dead-cell fraction (LEE011/Ribociclib; 3.162 µM): -0.0045; increase in dead-cell fraction (LEE011/Ribociclib; 10 µM): 0.0009; increase in dead-cell fraction ([9]; 0.0001 µM): -0.003; increase in dead-cell fraction ([9]; 0.0003162 µM): 0.0089; increase in dead-cell fraction ([9]; 0.001 µM): -0.0107; increase in dead-cell fraction ([9]; 0.003162 µM): 0.0052; increase in dead-cell fraction ([9]; 0.01 µM): 0.0137; increase in dead-cell fraction ([9]; 0.03162 µM): 0.0687; increase in dead-cell fraction ([9]; 0.1 µM): 0.0528; increase in dead-cell fraction ([9]; 0.3162 µM): 0.0636; increase in dead-cell fraction ([9]; 1 µM): 0.0458; increase in dead-cell fraction (BSJ-03-123; 0.001 µM): -0.0024; increase in dead-cell fraction (BSJ-03-123; 0.003162 µM): -0.0357; increase in dead-cell fraction (BSJ-03-123; 0.01 µM): 0.0044; increase in dead-cell fraction (BSJ-03-123; 0.03162 µM): 0.0319; increase in dead-cell fraction (BSJ-03-123; 0.1 µM): 0.0144; increase in dead-cell fraction (BSJ-03-123; 0.3162 µM): -0.0016; increase in dead-cell fraction (BSJ-03-123; 1 µM): 0.0213; increase in dead-cell fraction (BSJ-03-123; 3.162 µM): 0.0264; increase in dead-cell fraction (BSJ-03-123; 10 µM): 0.0146; increase in dead-cell fraction (YKL-5-124; 0.001 µM): 0.0052; increase in dead-cell fraction (YKL-5-124; 0.003162 µM): 0.0479; increase in dead-cell fraction (YKL-5-124; 0.01 µM): 0.037; increase in dead-cell fraction (YKL-5-124; 0.03162 µM): 0.0467; increase in dead-cell fraction (YKL-5-124; 0.1 µM): 0.0495; increase in dead-cell fraction (YKL-5-124; 0.3162 µM): 0.0156; increase in dead-cell fraction (YKL-5-124; 1 µM): 0.067; increase in dead-cell fraction (YKL-5-124; 3.162 µM): 0.121; increase in dead-cell fraction (YKL-5-124; 10 µM): 0.148
